# Source: patent US4960867A, “Leiurus quinquestriatus venom peptide inhibitor of calcium activated potassium channels” (priority 1989, dated 1990)
# System: high conductance Ca2+-activated K+ channel
# Type: biochemical
# Description: Single Ca^2+ -activated K^+ channel currents were monitored in excised membrane patches derived from either bovine aortic smooth muscle cells or GH3 anterior pituitary cells.
# Channel recordings were made by conventional patch clamp procedures as previously described by Hamil, O. P., et al. Using a micromanipulator, a glass micropipette (fabricated from soda lime glass, 5-10 m.OMEGA. resistance; containing 150 mM potassium chloride, 2 mM magnesium chloride, 1 5 μM calcium chloride, 10 mM HEPES, pH 7.3) was positioned on the surface of the cell, slight negative pressure was applied and the formation of a high resistance seal between the plasma membrane and pipette was monitored. Seals of 10-50×10^9 .OMEGA. were required for subsequent measurements.
# After attaining such a seal, the cell membrane was ruptured by application of a rapid negative pressure pulse and the electrode was pulled away from the cell to form an outside-facing-out excised patch at the tip of the electrode. The presence of Ca^2+ -activated K^+ channels was then determined, and such activity could be recorded in excised patches for up to two hours. Recordings were made at a holding potential of 0 to +20 mV in a bathing medium consisting of 150 mM sodium chloride, 10 mM HEPES, pH 7.3. […]
structure (smiles),measurement,value
CC[N+](CC)(CC)CC [tetraethylammonium ion],block of channel activity,rapid reversible block
